Here are results for three compounds from paper PMC8733726, “Dioctanoyl Ultrashort Tetrabasic β-Peptides Sensitize Multidrug-Resistant Gram-Negative Bacteria to Novobiocin and Rifampicin” (Frontiers in Microbiology, 2021).

In brackets after ≈: the same amount, converted by molar mass. Read-outs that look alike come from different tables or passages of the source.

The nature of data set [1]: in vitro. To be noted: human. Format: cell-based. The method, then: The degree of hemolysis induced by dUSTBβPs was determined by the amount of hemoglobin released from human erythrocytes upon incubation. Fresh human blood supplied by a commercial vendor was obtained from normal healthy volunteers following informed consent. The agent of interest was serially diluted in vehicle consisting of phosphate-buffered saline (PBS), saline, 5% glucose, or equivalents. The samples were incubated with gentle mixing at 37°C for 45 min and were subsequently centrifuged. The supernatant (plasma layer) was removed and centrifuged once more to completely pellet the cells. The plasma layer was diluted with Drabkin’s reagent and analyzed at a wavelength of 540 nm. Experiments were conducted in triplicates, and a calibration curve prepared by diluting blood (after addition of vehicle) was used to quantitate heme release. The vehicle or Triton X-100 were used as negative or positive controls, respectively.

The next data set is described as follows: Cell viability assay. Format: cell-based. The note with it: human. The method, then:
(§1) Cell viability assay was performed essentially as previously described ([[…] et al., 2019]). […] The cells were detached with trypsin and equal numbers of cells (8,000 cells in 50 μL) were dispersed into five rows of each column in 96-well plate; the remaining three rows of each column, designated as blanks, received 50 μL of the media without cells. After 24 h incubation, aliquots of 50 μL of dUSTBβP 3 at varying concentrations were added to each well and incubated for 48 h. […] Values from the wells without cells (blank wells) were subtracted from the corresponding sample wells and cell viability values of the treated samples relative to the vehicle controls set to 100% was determined. […] The results represent the mean ± SD of two independent experiments with five samples per experiment. […] Colistin was used as a negative control and doxorubicin, an anticancer drug, was used as a positive control.

Data set [2] has as its system A. baumannii ATCC 17978. Format: cell-based, Acinetobacter baumannii. The note with it: not told. As for the experimental part: (§2) The ability of dUSTBβP 3 to permeabilize the OM of Acinetobacter baumannii ATCC 17978 and Escherichia coli ATCC 25922 was assessed using 1-N-phenylnaphthylamine (NPN) as previously described with minor modifications ([Yang et al., 2017]; [Akhoundsadegh et al., 2019]). Overnight grown culture was subcultured (1 in 100) in fresh LB broth and grown to a mid-logarithmic phase (OD600 = 0.4–0.6). […] NPN (10 μM final concentration) was added to a black 96-well plate containing the cell culture and incubated in 5 mM HEPES (pH 7.2) supplemented with 5 mM glucose and 5 μM carbonyl cyanide 3-chlorophenylhydrazone at room temperature for 30 min in darkness. Varying concentrations of compound were added onto the suspension, and the resulting change in NPN fluorescence was measured continuously (every 30 s) on a SpectraMax M2 microplate reader (Molecular Devices, United States) at an excitation wavelength of 350 nm and an emission wavelength of 420 nm. Cells with NPN and the OM permeabilizer PMBN served as a positive control, while cells with NPN alone served as a negative control. Three replicates were conducted, and the data were corrected for any background fluorescence.

Data set [3] can be described thus: in vitro. Format: cell-based. The note with it: human. The method, then:
as §1
The source holds these as a separate data set.

A short description of data set [4]: in vitro. To be noted: human, plasma. As for the experimental part: Stability of dUSTBβP 3 was evaluated in human plasma. […] The supernatant was analyzed by HPLC-tandem mass spectrometry using selected reaction monitoring. The % compound remaining was determined by comparing peak areas at different time points to time zero. Assuming first-order kinetics, the half-life was extrapolated from the slope of the initial linear range of the logarithmic curve of compound remaining over time. Experiments were performed in duplicates, and the reference compounds include propantheline and propoxycaine.

The next data set relates to MDR K. pneumoniae. It is filed as cell-based, Klebsiella pneumoniae. To be noted: MDR, 18 h. The method, then: (§3) The adjuvant activities of dUSTBβPs were evaluated using checkerboard assay as previously described ([Berry et al., 2019]). Overnight-grown bacterial culture diluted in saline to 0.5 McFarland turbidity was successively diluted 1:50 in MHB to achieve a final concentration of 5 × 10^5 CFU/mL for inoculation. The antibiotic and adjuvant were serially diluted 2-fold along the x-axis and y-axis, respectively, resulting in varying concentrations of both agents in each well. Subsequently, the 96-well plate was incubated with equal volumes of bacterial inoculum at 37°C for 18 h. Confirmation of turbidity was done using an EMax Plus microplate reader (Molecular Devices, United States) at a wavelength of 590 nm. Wells comprising MHB alone or in the presence of bacterial cells were used as negative or positive controls, respectively. Fractional inhibitory concentration index (FICI) is determined by adding the FICs of both antibiotic and adjuvant. The FIC of the antibiotic is calculated by dividing the MIC of the antibiotic in the presence of the adjuvant by the MIC of the antibiotic alone. Similarly, the FIC of the adjuvant is calculated by dividing the MIC of the adjuvant in the presence of the antibiotic by the MIC of the adjuvant alone. FICI ≤ 0.5, 0.5 < x ≤ 4, and >4 were deemed synergistic, additive, and antagonistic, respectively ([Meletiadis et al., 2010]).

In data set [5] the test system is wild-type E. coli ATCC 25922. Put plainly: microbe, parasite or virus in culture. It is filed as cell-based, Escherichia coli. A digest of the protocol:
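2-fold antibiotic × adjuvant checkerboard in MHB; inoculum 5 × 10^5 CFU/mL; 37°C, 18 h; OD590 read. FICI = FIC antibiotic + FIC adjuvant; ≤ 0.5 synergistic, 0.5 < x ≤ 4 additive, >4 antagonistic.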

Data set [6] relates to A. baumannii ATCC 17978. Format: cell-based, Acinetobacter baumannii. To be noted: ATCC 17978, 18 h. As for the experimental part: (§4) The in vitro antibacterial activities of dUSTBβPs were evaluated using microbroth dilution susceptibility test, in accordance with the Clinical and Laboratory Standards Institute (CLSI) guidelines ([Clinical and Laboratory Standards Institute, 2019]). Overnight-grown bacterial culture diluted in saline to 0.5 McFarland turbidity was successively diluted 1:50 in Mueller-Hinton broth (MHB) to achieve a final concentration of 5 × 10^5 colony forming units (CFU)/mL for inoculation. The agents were serially diluted 2-fold in MHB on a 96-well plate; mixed with bacterial inoculum of equal volumes, and incubated at 37°C for 18 h. Antibacterial activity was determined by the minimum inhibitory concentration (MIC), which is the lowest concentration of agent required for inhibition of visible bacterial growth in the form of turbidity. Confirmation of turbidity was done using an EMax Plus microplate reader (Molecular Devices, United States) at a wavelength of 590 nm. Wells comprising MHB alone or MHB inoculated with bacteria were used as negative or positive controls, respectively.

A further data set has as its system P. aeruginosa PAO1. Format: cell-based, Pseudomonas aeruginosa. The note with it: PAO1, 18 h. The method, then: as §4
In data set [7] the test system is MDR clinical isolates of A. baumannii. It is filed as cell-based, Acinetobacter baumannii. To be noted: MDR clinical isolates of, 18 h. As for the experimental part:
as §3

Data set [8] relates to E. coli ATCC 25922. It is filed as cell-based, Escherichia coli. The note with it: ATCC 25922, 18 h. As for the experimental part: as §4
Data set [9] deals with E. coli ATCC 25922. Format: cell-based, Escherichia coli. The note with it: not told. As for the experimental part: as §2
The conditions of data set [10]: cited from earlier work.
Data set [11] concerns MDR P. aeruginosa clinical isolates. The data set is described as follows: Resistance phenotype (MICs of antibiotics) of MDR clinical isolates. Format: cell-based, Pseudomonas aeruginosa.
The subject of data set [12] is MDR K. pneumoniae clinical isolates. The description is as above. Format: cell-based, Klebsiella pneumoniae.
For data set [13], the system named is wild-type A. baumannii ATCC 17978. The data set is described as follows: Checkerboard assay. Format: cell-based, Acinetobacter baumannii. The note with it: ATCC 17978. A digest of the protocol:
(§5)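 Checkerboard in MHB with 5 × 10^5 CFU/mL inoculum, antibiotic and adjuvant each serially 2-fold diluted on crossed axes. Growth read as turbidity at 590 nm; FICI is the sum of each agent's MIC in combination divided by its MIC alone.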

Data set [14] has as its system MDR A. baumannii clinical isolates. Put plainly: Resistance phenotype (MICs of antibiotics) of MDR clinical isolates. Format: cell-based, Acinetobacter baumannii.
Data set [15] has as its system wild-type P. aeruginosa PAO1. Put plainly: microbe, parasite or virus in culture. Format: cell-based, Pseudomonas aeruginosa. To be noted: PAO1. The procedure, abridged: as §5
The subject of data set [16] is MDR E. cloacae clinical isolates. The data set is described as follows: Resistance phenotype (MICs of antibiotics) of MDR clinical isolates. It is filed as cell-based, Enterobacter cloacae.
For data set [17], the system named is MDR E. coli clinical isolates. The data set is described as above. It is filed as cell-based, Escherichia coli.
The mark [18] stands for this setting: antibiotic alone (Supplementary Table 7).
The mark [19] stands for this setting: antibiotic with dUSTBβP 3 at 8 μg/mL.

With `CCCCCCCC(=O)NC(CCCNC(=N)N)CC(=O)NCCCN(CCCNC(=O)CC(CCCNC(=N)N)NC(=O)CCCCCCC)CC(=O)NC(CCCNC(=N)N)CC(N)=O` (centres unmarked) [dUSTBβP 3], in the data set “in vitro [1]”, the hemolysis at 45 min, 1.5625 µM worked out at 3.23 ± 0.08%; the hemolysis at 45 min, 3.125 µM turned out to be 3.32 ± 0.16%; the hemolysis at 45 min, 6.25 µM worked out at 3.18 ± 0.05%; the hemolysis at 45 min, 12.5 µM came to 3.28 ± 0.12%. For the same compound, in “in vitro [1]”, the hemolysis at 45 min, 25 µM was determined as 3.35 ± 0.09%; the hemolysis at 45 min, 50 µM is 3.43 ± 0.49%; the hemolysis at 45 min, 100 µM worked out at 4.17 ± 1.29%; the hemolysis at 45 min, 200 µM was 4.59 ± 2.42%. For the same compound, in “Cell viability assay”, the midpoint of cytotoxicity, the CC50 at 48 h, lay at 101 µM. Further, the “OM permeabilization, NPN fluorescence” value in the data set on A. baumannii ATCC 17978 [2] was “dose-dependently permeabilizes the OM”. In addition, in the data set “in vitro [3]”, the viability at 48 h, 125 µM was found to be 86.4 ± 8.7%. Also, in “in vitro [4]”, the half-life at 1 μM is 10.4 ± 3.7 h and the fraction remaining at 2 h, 1 μM was 86.8 ± 3.7%. The FICI in the data set with MDR K. pneumoniae is less than 0.156. The FICI in data set [5] (ATCC 25922, 18 h) came to 0.064. The MIC in the data set with A. baumannii ATCC 17978 [6] is greater than 128 µg/mL. This compound displayed an MIC against P. aeruginosa PAO1 of 128 µg/mL (≈ 135 µM). In data set [7], the “MIC of compound alone” value stood at 16 µg/mL. Besides, the MIC with E. coli ATCC 25922 [8] stood at 128 µg/mL (≈ 135 µM). For the same compound, in the data set on E. coli ATCC 25922 [9], the “OM permeabilization, NPN fluorescence” value is recorded as “dose-dependently permeabilizes the OM”.
Turning to `CCCCCCCCCCNCCN[C@@]1(C)C[C@H](O[C@H]2[C@H](Oc3c4cc5cc3Oc3ccc(cc3Cl)[C@@H](O)[C@@H](NC(=O)[C@@H](CC(C)C)NC)C(=O)N[C@@H](CC(N)=O)C(=O)N[C@H]5C(=O)N[C@H]3C(=O)N[C@H](C(=O)N[C@H](C(=O)O)c5cc(O)c(CNCP(=O)(O)O)c(O)c5-c5cc3ccc5O)[C@H](O)c3ccc(c(Cl)c3)O4)O[C@H](CO)[C@@H](O)[C@@H]2O)O[C@@H](C)[C@H]1O` [telavancin], the “In vivo elimination half-life” value in data set [10] (ref Chen and Lu, 2020) is reported as 8 h.
Turning to Colistin, the MIC in data set [11] (259-96196) is 1 µg/mL; in data set [11] (262-101856), 1 µg/mL; in data set [11] (264-104354), 1 µg/mL; in [11] (91433), 4 µg/mL; in data set [11] (114228), 4 µg/mL; in data set [12] (113250), greater than 16 µg/mL. Moreover, the MIC is greater than 16 µg/mL in data set [12] (113254); 1 µg/mL in data set [12] (116381); 4 µg/mL in data set [14] (92247); 0.5 µg/mL in data set [14] (110193); 0.25 µg/mL in data set [14] (AB027); 0.25 µg/mL in data set [14] (AB031). Moreover, the MIC is 0.125 µg/mL in data set [14] (LAC-4); 0.25 µg/mL in data set [16] (117029); greater than 16 µg/mL in data set [16] (118564); greater than 16 µg/mL in [16] (121187); 4 µg/mL in data set [17] (94393 (mcr-1 +)); 16 µg/mL in data set [17] (94474 (mcr-1 +)). This compound had a minimum inhibitory concentration (MIC) in data set [17] (107115) of 0.125 µg/mL. Besides, the MICantibiotic was found to be 0.125 in data set [5] (ATCC 25922, antibiotic alone (Supplementary Table 7)); 0.5 in data set [13] (setting [18]); 1 in data set [15] (setting [18]). In addition, the MICcombo in data set [5] (ATCC 25922, antibiotic with dUSTBβP 3 at 8 μg/mL) was determined as 0.031 µg/mL; in [13] (setting [19]) it was 0.25 µg/mL; in data set [15] (setting [19]) it was 1 µg/mL. In addition, in data set [10] (in vivo), the “In vivo elimination half-life” value is listed as 5 h.

The CC50 is the concentration that lowers cell viability or growth by half. Read a low CC50 as harm at low concentration. By viability is commonly meant a read-out of living cells in per cent, often relative to untreated cells. Read a low viability as more harm to the cells. One may read the half-life as the time in which the quantity being followed falls by half. Higher therefore signals slow decline. Usually share remaining stands for what is left of the initial amount, in per cent. Broadly, the MIC is the lowest concentration that inhibits growth of the organism. The low end stands for a more susceptible organism, the high end for a less susceptible organism.
